# Results as given in publication PMC4303209, “A novel phosphatidylinositol 3-kinase (PI3K) inhibitor directs a potent FOXO-dependent, p53-independent cell cycle arrest phenotype characterized by the differential induction of a subset of FOXO-regulated genes” (Breast Cancer Research : BCR, 2014).
# Tested on: MCF-7 breast cancer cells
# Test: Microarray gene expression analysis (Agilent whole human genome 4 x 44K; compound vs DMSO, LIMMA log2 fold change)
# Type: cell-based
smiles,measurement,setting,value
Oc1cccc(-c2nc(N3CCOCC3)c3oc4ncccc4c3n2)c1 [PI-103],BCL11B log2FC,"Apoptosis genes, Gene 64919",0.237
same,MRPL41 log2FC,"Apoptosis genes, Gene 64975",-0.467
same,PINK1 log2FC,"Apoptosis genes, Gene 65018",1.918
same,PRAMEF1 log2FC,"Apoptosis genes, Gene 65121",0.050
same,PRAMEF2 log2FC,"Apoptosis genes, Gene 65122",0.021
same,UBE2Z log2FC,"Apoptosis genes, Gene 65264",-0.420
same,TMEM109 log2FC,"Apoptosis genes, Gene 79073",-0.554
same,CHAC1 log2FC,"Apoptosis genes, Gene 79094",0.106
same,TNIP2 log2FC,"Apoptosis genes, Gene 79155",-0.233
same,PLEKHF1 log2FC,"Apoptosis genes, Gene 79156",-0.466
same,THOC6 log2FC,"Apoptosis genes, Gene 79228",-0.153
same,BCL2L14 log2FC,"Apoptosis genes, Gene 79370",-0.153
same,BIRC7 log2FC,"Apoptosis genes, Gene 79444",-0.015
same,ELMO3 log2FC,"Apoptosis genes, Gene 79767",-0.530
same,SLTM log2FC,"Apoptosis genes, Gene 79811",0.713
same,ZC3H12A log2FC,"Apoptosis genes, Gene 80149",-1.248
same,RNF34 log2FC,"Apoptosis genes, Gene 80196",-0.370
same,ELL3 log2FC,"Apoptosis genes, Gene 80237",1.045
same,CPEB4 log2FC,"Apoptosis genes, Gene 80315",0.553
same,COL18A1 log2FC,"Apoptosis genes, Gene 80781",0.023
same,SGPP1 log2FC,"Apoptosis genes, Gene 81537",-0.248
same,SHARPIN log2FC,"Apoptosis genes, Gene 81858",-0.118
same,APH1B log2FC,"Apoptosis genes, Gene 83464",-0.243
same,RASSF5 log2FC,"Apoptosis genes, Gene 83593",-0.099
same,SOX7 log2FC,"Apoptosis genes, Gene 83595",-0.149
same,BCL2L12 log2FC,"Apoptosis genes, Gene 83596",-0.182
same,ITCH log2FC,"Apoptosis genes, Gene 83737",0.449
same,CDCA7 log2FC,"Apoptosis genes, Gene 83879",-0.061
same,TATDN1 log2FC,"Apoptosis genes, Gene 83940",0.554
same,TM2D1 log2FC,"Apoptosis genes, Gene 83941",0.055
same,OBSCN log2FC,"Apoptosis genes, Gene 84033",0.392
same,TRAF7 log2FC,"Apoptosis genes, Gene 84231",-0.080
same,RHBDD1 log2FC,"Apoptosis genes, Gene 84236",-0.425
same,TCHP log2FC,"Apoptosis genes, Gene 84260",0.283
same,ZDHHC16 log2FC,"Apoptosis genes, Gene 84287",-0.316
same,ING5 log2FC,"Apoptosis genes, Gene 84289",-0.961
same,AKT1S1 log2FC,"Apoptosis genes, Gene 84335",-0.610
same,CARD11 log2FC,"Apoptosis genes, Gene 84433",0.185
same,SYVN1 log2FC,"Apoptosis genes, Gene 84447",0.495
same,ZC3H8 log2FC,"Apoptosis genes, Gene 84524",1.375
same,FNDC1 log2FC,"Apoptosis genes, Gene 84624",-0.079
same,CARD6 log2FC,"Apoptosis genes, Gene 84674",0.035
same,HINT2 log2FC,"Apoptosis genes, Gene 84681",0.122
same,BEX2 log2FC,"Apoptosis genes, Gene 84707",0.833
same,TNS4 log2FC,"Apoptosis genes, Gene 84951",-1.157
same,ATG4D log2FC,"Apoptosis genes, Gene 84971",-0.288
same,SCRT2 log2FC,"Apoptosis genes, Gene 85508",-0.600
same,WNT3A log2FC,"Apoptosis genes, Gene 89780",-0.352
same,FGD3 log2FC,"Apoptosis genes, Gene 89846",0.895
same,UNC5A log2FC,"Apoptosis genes, Gene 90249",-0.397
same,BMF log2FC,"Apoptosis genes, Gene 90427",2.201
same,MTDH log2FC,"Apoptosis genes, Gene 92140",0.308
same,TIMM50 log2FC,"Apoptosis genes, Gene 92609",-0.337
same,TP53INP1 log2FC,"Apoptosis genes, Gene 94241",0.890
same,EGLN2 log2FC,"Apoptosis genes, Gene 112398",0.419
same,EGLN3 log2FC,"Apoptosis genes, Gene 112399",-0.441
same,PNMA5 log2FC,"Apoptosis genes, Gene 114824",0.611
same,SLC5A11 log2FC,"Apoptosis genes, Gene 115584",0.170
same,TWIST2 log2FC,"Apoptosis genes, Gene 117581",-0.613
same,RFFL log2FC,"Apoptosis genes, Gene 117584",-0.445
same,FGD4 log2FC,"Apoptosis genes, Gene 121512",0.646
same,RXFP2 log2FC,"Apoptosis genes, Gene 122042",-0.012
same,DCUN1D3 log2FC,"Apoptosis genes, Gene 123879",-0.855
same,ACVR1C log2FC,"Apoptosis genes, Gene 130399",0.413
same,IL31RA log2FC,"Apoptosis genes, Gene 133396",0.067
same,JMY log2FC,"Apoptosis genes, Gene 133746",1.008
same,UNC5D log2FC,"Apoptosis genes, Gene 137970",0.036
same,DYNLL2 log2FC,"Apoptosis genes, Gene 140735",-0.654
same,PSMA8 log2FC,"Apoptosis genes, Gene 143471",0.074
same,TICAM1 log2FC,"Apoptosis genes, Gene 148022",-0.334
same,BNIPL log2FC,"Apoptosis genes, Gene 149428",-0.016
same,ZSWIM2 log2FC,"Apoptosis genes, Gene 151112",-0.00651
same,DAB2IP log2FC,"Apoptosis genes, Gene 153090",0.029
same,SLC5A8 log2FC,"Apoptosis genes, Gene 160728",-0.019
same,PTCRA log2FC,"Apoptosis genes, Gene 171558",-0.229
same,HIGD2A log2FC,"Apoptosis genes, Gene 192286",-0.188
same,FLCN log2FC,"Apoptosis genes, Gene 201163",0.778
same,HIPK1 log2FC,"Apoptosis genes, Gene 204851",-0.082
same,UNC5B log2FC,"Apoptosis genes, Gene 219699",-0.706
same,RNF152 log2FC,"Apoptosis genes, Gene 220441",-0.049
same,FGD2 log2FC,"Apoptosis genes, Gene 221472",-0.083
same,MPV17L log2FC,"Apoptosis genes, Gene 255027",-0.431
same,TMEM23 log2FC,"Apoptosis genes, Gene 259230",0.281
same,MAGI3 log2FC,"Apoptosis genes, Gene 260425",0.313
same,BLOC1S2 log2FC,"Apoptosis genes, Gene 282991",0.288
same,NRBP2 log2FC,"Apoptosis genes, Gene 340371",-0.00243
same,NANOS3 log2FC,"Apoptosis genes, Gene 342977",0.015
same,AMIGO2 log2FC,"Apoptosis genes, Gene 347902",0.458
same,C6orf120 log2FC,"Apoptosis genes, Gene 387263",-0.573
same,GDF6 log2FC,"Apoptosis genes, Gene 392255",-0.024
same,MYO18A log2FC,"Apoptosis genes, Gene 399687",-0.274
same,PRAMEF3 log2FC,"Apoptosis genes, Gene 401940",-0.384
same,ADIPOQ log2FC,"Apoptosis genes, Gene 414149",-0.263
same,PIM3 log2FC,"Apoptosis genes, Gene 415116",0.644
same,LGALS7 log2FC,"Apoptosis genes, Gene 653499",-0.246
same,CARD9 log2FC,"Apoptosis genes, Gene 728489",-0.430
same,PDCD6 log2FC,"Apoptosis genes, Gene 728613",-0.273
same,RRN3 log2FC,"Apoptosis genes, Gene 730092",0.522
same,CD24 log2FC,"Apoptosis genes, Gene 100133941",0.117
same,ACVR1 log2FC,"Gene 90, cell cycle genes",0.55
same,ACVR1B log2FC,"Gene 91, cell cycle genes",-0.21
same,ADCYAP1 log2FC,"Gene 116, cell cycle genes",0.0422
same,AHR log2FC,"Gene 196, cell cycle genes",0.78
same,AIF1 log2FC,"Gene 199, cell cycle genes",-0.0247
same,AK1 log2FC,"Gene 203, cell cycle genes",-0.25
same,AKT1 log2FC,"Gene 207, cell cycle genes",-0.58
same,AKT2 log2FC,"Gene 208, cell cycle genes",-0.41
same,ALOX15B log2FC,"Gene 247, cell cycle genes",-0.00234
same,ANK3 log2FC,"Gene 288, cell cycle genes",0.62
same,ANXA1 log2FC,"Gene 301, cell cycle genes",0.80
same,ANXA11 log2FC,"Gene 311, cell cycle genes",-0.16
same,APBB1 log2FC,"Gene 322, cell cycle genes",0.36
same,APBB2 log2FC,"Gene 323, cell cycle genes",-0.18
same,APEX1 log2FC,"Gene 328, cell cycle genes",0.12
same,BIRC2 log2FC,"Gene 329, cell cycle genes",-0.34
same,APP log2FC,"Gene 351, cell cycle genes",0.33
same,ARF6 log2FC,"Gene 382, cell cycle genes",-0.57
same,RHOB log2FC,"Gene 388, cell cycle genes",-0.10
same,RHOC log2FC,"Gene 389, cell cycle genes",-0.37
same,ARL2 log2FC,"Gene 402, cell cycle genes",0.09
same,ARL3 log2FC,"Gene 403, cell cycle genes",0.06
same,ASNS log2FC,"Gene 440, cell cycle genes",-0.39
same,BACH1 log2FC,"Gene 571, cell cycle genes",0.78
same,BARD1 log2FC,"Gene 580, cell cycle genes",0.34
same,BBS4 log2FC,"Gene 585, cell cycle genes",0.84
same,CCND1 log2FC,"Gene 595, cell cycle genes",-1.53
same,BCL2 log2FC,"Gene 596, cell cycle genes",-0.34
same,BCL2L1 log2FC,"Gene 598, cell cycle genes",-0.92
same,BCR log2FC,"Gene 613, cell cycle genes",-0.81
same,BID log2FC,"Gene 637, cell cycle genes",-0.26
same,BMP2 log2FC,"Gene 650, cell cycle genes",-0.23
same,BMP7 log2FC,"Gene 655, cell cycle genes",-0.32
same,DST log2FC,"Gene 667, cell cycle genes",0.55
same,BRCA1 log2FC,"Gene 672, cell cycle genes",0.74
same,BRDT log2FC,"Gene 676, cell cycle genes",-0.0232
same,BUB1 log2FC,"Gene 699, cell cycle genes",0.59
same,CALM1 log2FC,"Gene 801, cell cycle genes",0.07
same,CALR log2FC,"Gene 811, cell cycle genes",-0.16
same,CAMK2A log2FC,"Gene 815, cell cycle genes",0.03
same,CAMK2D log2FC,"Gene 817, cell cycle genes",0.78
same,CAMK2G log2FC,"Gene 818, cell cycle genes",0.66
same,CASP2 log2FC,"Gene 835, cell cycle genes",-0.76
same,CAV2 log2FC,"Gene 858, cell cycle genes",0.93
same,RUNX3 log2FC,"Gene 864, cell cycle genes",-0.36
same,CCNA2 log2FC,"Gene 890, cell cycle genes",-0.08
same,CCNB1 log2FC,"Gene 891, cell cycle genes",-0.13
same,CCNC log2FC,"Gene 892, cell cycle genes",-0.10
same,CCND2 log2FC,"Gene 894, cell cycle genes",-1.30
same,CCND3 log2FC,"Gene 896, cell cycle genes",-0.73
same,CCNE1 log2FC,"Gene 898, cell cycle genes",-0.63
same,CCNG1 log2FC,"Gene 900, cell cycle genes",0.46
same,CCNG2 log2FC,"Gene 901, cell cycle genes",3.91
same,CD28 log2FC,"Gene 940, cell cycle genes",0.0361
same,CDC5L log2FC,"Gene 988, cell cycle genes",0.88
same,CDC6 log2FC,"Gene 990, cell cycle genes",-0.98
same,CDC20 log2FC,"Gene 991, cell cycle genes",-0.31
same,CDC25A log2FC,"Gene 993, cell cycle genes",-2.03
